The values that follow are results of earlier work, collected in patent US20130116279A1, “BICYCLIC HETEROARYL INHIBITORS OF PDE4” (KALYPSYS, INC., priority 2011, published 2013).

For this data set, the system named is recombinant human PDE4. Conditions: inhibiting recombinant human PDE4, reported.

`COc1ccc(C2CNC(=O)C2)cc1OC1CCCC1` (stereo not shown) [rolipram]: the IC50 is approximately 200 nM.

A word on the IC50: it is the midpoint of a concentration-inhibition curve.
